Assay results taken from publication PMC4052307, “Identification of Plakortide E from the Caribbean Sponge Plakortis halichondroides as a Trypanocidal Protease Inhibitor using Bioactivity-Guided Fractionation” (Marine Drugs, 2014).
“And” between values parts separate entries of the source, which are not always exact repeats. Equal values may be shown once. Read-outs that look alike come from different tables or passages of the source.

Columns and labels:
[1] = system: Plasmodia; details: cited from earlier work
[2] = molecular target: T1, rhodesain (Trypanosoma brucei rhodesiense, UniProt Q95PM0); experiment: rhodesain dilution assay (reversibility); type: biochemical; details: preincubated 1 h with 10 fold IC50, then diluted 100 fold
Description: In order to study the inhibition mechanism of plakortide E, enzyme assays with various inhibitor and substrate concentrations were performed with cathepsin B to determine whether the inhibition is competitive with respect to the substrate. The IC50 values for cathepsin B were determined at three different substrate concentrations (50, 100, 200 μM). […] Therefore, we determined the time-dependency of inhibition by measuring IC50 values in correlation to incubation time of enzyme with the inhibitor added, prior to substrate addition. […] To address whether the inhibition is reversible or irreversible, further kinetic studies were performed as described by Copeland [19]. Dilution assays were performed and compared with K11777 [20], an irreversible vinylsulfone-based inhibitor of rhodesain. The enzyme rhodesain (100 fold concentration as used in the normal enzyme assays) was preincubated with the 10 fold IC50 concentration of the compound for one hour, which allows the formation of enzyme-inhibitor complexes and leads to total block of enzyme activity. […] In case of irreversible inhibition, dissociation of the complex cannot occur and no enzyme activity will be detected. […] This indicates a reversible inhibition by plakortide E. In summary, plakortide E was determined to be a non-competitive, reversible, inhibitor of cysteine proteases, in case of rhodesain slow-binding was observed.

[3] = molecular target: cathepsin B (Homo sapiens, UniProt P07858); experiment: cathepsin B enzyme assay; type: biochemical
[4] = molecular target: cathepsin L (Homo sapiens, UniProt P07711); experiment: cathepsin L enzyme assay; type: biochemical
[5] = molecular target: T1, rhodesain; experiment: rhodesain enzyme assay; type: biochemical
[6] = system: SARS PLpro; type: biochemical, SARS coronavirus; details: at 100 μg/mL (285.71 μM)
[7] = system: trypomastigote forms of Trypanosoma brucei; experiment: parasite growth assay against T. brucei; type: cell-based; details: read-out: trypanocidal activity IC50
[8] = system: Leishmania major promastigotes; experiment: assay on L. major promastigotes; type: cell-based
[9] = system: Candida albicans; experiment: assay on C. albicans; type: cell-based
[10] = system: J774.1 macrophages; details: at 100 μM
[11] = system: sarcoplasmic reticulum (SR) Ca2+ ATPase; parameters: method as in doi:10.1016/0040-4020(95)00856-X; details: cited from earlier work

T1 sequence (Q95PM0 entry or part of it): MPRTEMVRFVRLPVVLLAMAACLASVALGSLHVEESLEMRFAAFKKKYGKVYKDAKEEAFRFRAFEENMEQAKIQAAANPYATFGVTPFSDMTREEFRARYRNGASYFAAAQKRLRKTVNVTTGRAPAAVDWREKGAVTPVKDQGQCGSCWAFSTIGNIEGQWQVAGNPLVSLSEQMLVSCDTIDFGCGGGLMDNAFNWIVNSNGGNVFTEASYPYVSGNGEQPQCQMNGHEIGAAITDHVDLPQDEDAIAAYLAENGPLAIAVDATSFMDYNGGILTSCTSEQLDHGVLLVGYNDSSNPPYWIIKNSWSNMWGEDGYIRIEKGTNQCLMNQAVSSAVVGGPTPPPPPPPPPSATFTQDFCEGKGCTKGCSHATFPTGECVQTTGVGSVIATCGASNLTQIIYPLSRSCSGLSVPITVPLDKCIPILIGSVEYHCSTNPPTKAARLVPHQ
Sequence of cathepsin L (P07711 114-333): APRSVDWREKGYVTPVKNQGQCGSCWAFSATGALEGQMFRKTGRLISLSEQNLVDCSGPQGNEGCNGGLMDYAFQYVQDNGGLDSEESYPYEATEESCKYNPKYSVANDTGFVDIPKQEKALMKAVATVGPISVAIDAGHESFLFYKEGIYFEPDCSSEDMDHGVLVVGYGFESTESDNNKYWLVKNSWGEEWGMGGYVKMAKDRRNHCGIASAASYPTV

CC/C=C/C(CC)C[C@@]1(C)C[C@@H](CC)[C@H](CC(=O)OC)OO1 (stereo partly shown) [3-epiplakortin]
activity against Plasmodia [1]: active

CN1CCN(C(=O)N[C@@H](Cc2ccccc2)C(=O)N[C@H](/C=C/S(=O)(=O)c2ccccc2)CCc2ccccc2)CC1 [K11777, reference compound]
reactivation of the enzyme (enzyme activity after dilution) [2]: no enzyme activity was detected

CC/C=C/[C@H](CC)C/C(C)=C/[C@@]1(CC)C[C@](/C=C/C(=O)O)(CC)OO1 [plakortide E]
inhibition mechanism, cathepsin B ([3]; IC50 at three substrate concentrations): non-competitive inhibition
inhibition of cathepsin B ([3]; at 100 μg/mL (285.71 μM)): Inhibition
IC50 ([3]; substrate concentration 50 μM): 82.7 µM and 82 µM
IC50 ([3]; substrate concentration 100 μM): 74.2 µM and 73 µM
IC50 ([3]; substrate concentration 200 μM): 103 µM
IC50 ([4]; [S] = 6.25 μM): 106 µM and 105 µM
inhibition of cathepsin L ([4]; at 100 μg/mL (285.71 μM)): Inhibition
IC50 ([5]; 5 min incubation of enzyme with inhibitor prior to substrate addition, read-out: IC50 rhodesain, time-dependency (converted)): 257 µM
IC50 ([5]; 30 min incubation of enzyme with inhibitor prior to substrate addition, read-out: IC50 rhodesain, time-dependency (converted)): 205 µM
IC50 ([5]; 60 min incubation of enzyme with inhibitor prior to substrate addition, read-out: IC50 rhodesain, time-dependency (converted)): 77 µM
IC50 ([5]; [S] = 30.0 μM, read-out: IC50 rhodesain (converted)): 124 µM and 126 µM
inhibition of rhodesain ([5]; at 100 μg/mL (285.71 μM)): Inhibition
inhibition mechanism, rhodesain ([5]; enzyme kinetic studies): non-competitive, slowly-binding, reversible inhibitor
reactivation of the enzyme (enzyme activity after dilution) [2]: about 50%
inhibition of SARS PLpro [6]: Inhibition
IC50 ([7]; after 48 h): 5 µM
IC50 ([7]; after 72 h): 5 µM
activity against Leishmania [8]: did not show activity
activity against Candida [9]: No activity
cytotoxic effects against macrophages [10]: no cytotoxic effects
SR Ca2+ ATPase activity [11]: stimulate
activity against Plasmodia [1]: inactive

CC/C=C/[C@H](CC)C/C=C/[C@@]1(CC)C[C@H](CC)[C@H](CC(=O)O)OO1 [plakortide M]
activity against Plasmodia [1]: active

CC/C=C/[C@H](CC)C[C@@]1(C)C[C@@H](CC)[C@@H](CC(=O)OC)OO1 [plakortin]
activity against Plasmodia [1]: active

dihydroplakortin
activity against Plasmodia [1]: active

plakortide Q
activity against Plasmodia [1]: active
